Patent publication US10150747B2, “Compounds for the treatment of hepatitis C” (BRISTOL-MYERS SQUIBB COMPANY, priority 2015, dated 2018)
Read-outs that look alike come from different tables or passages of the source.

Tests used:
[1] = biological target: HCV NS5B genotype 1b (Con1) (Hepatitis C virus genotype 1b (isolate Con1) (HCV), UniProt Q9WMX2); test: HCV NS5B RdRp enzyme assay (1b enzyme); type: biochemical; details: genotype 1b NS5B enzyme
Experimental: HCV NS5B RdRp Cloning, Expression, and Purification.
The cDNA encoding NS5B proteins of HCV genotype 1b (Con1), a genotype 1b variant with amino acid 316 mutated from cysteine to asparagine, and genotype 2a (JFH-1), were cloned into the pET21a expression vector. Each untagged protein was expressed with an 18 amino acid C-terminal truncation to enhance the solubility. The E. coli competent cell line BL21(DE3) was used for expression of the protein. Cultures were grown at 37° C. for ˜4 hours until the cultures reached an optical density of 2.0 at 600 nm. The cultures were cooled to 20° C. and induced with 1 mM IPTG. Fresh ampicillin was added to a final concentration of 50 μg/mL and the cells were grown overnight at 20° C.
The lysis buffer consisted of 20 mM Tris-HCl, pH 7.4, 500 mM NaCl, 0.5% triton X-100, 1 mM DTT, 1 mM EDTA, 20% glycerol, 0.5 mg/mL lysozyme, 10 mM MgCl2, 15 ug/mL deoxyribonuclease I, and Complete TM protease inhibitor tablets (Roche). After addition of the lysis buffer, frozen cell pellets were resuspended using a tissue homogenizer. To reduce the viscosity of the sample, aliquots of the lysate were sonicated on ice using a microtip attached to a Branson sonicator. The sonicated lysate was centrifuged at 100,000×g for 30 minutes at 4° C. and filtered through a 0.2 μm filter unit (Corning).
The protein was purified using two sequential chromatography steps: Heparin sepharose CL-6B and polyU sepharose 4B. The chromatography buffers were identical to the lysis buffer but contained no lysozyme, deoxyribonuclease I, MgCl2 or protease inhibitor and the NaCl concentration of the buffer was adjusted according to the requirements for charging the protein onto the column. Each column was eluted with a NaCl gradient which varied in length from 5-50 column volumes depending on the column type. […] The enzyme was aliquoted and stored at −80° C.
HCV NS5B RdRp Enzyme Assay.
An on-bead solid phase homogeneous assay was used in a 384-well format to assess NS5B inhibitors (WangY-K, Rigat K, Roberts S, and Gao M (2006) Anal Biochem, 359: 106-111). The biotinylated oligo dT12 primer was captured on streptavidin-coupled imaging beads (GE, RPNQ0261) by mixing primer and beads in 1× buffer and incubating at room temperature for three hours. Unbound primer was removed after centrifugation. The primer-bound beads were resuspended in 3× reaction mix (20 mM Hepes buffer, pH 7.5, dT primer coupled beads, poly A template, ^3H-UTP, and RNAse inhibitor (Promega N2515)). Compounds were serially diluted 1:3 in DMSO and aliquoted into assay plates. Equal volumes (5 μL) of water, 3× reaction mix, and enzyme in 3× assay buffer (60 mM Hepes buffer, pH 7.5, 7.5 mM MgCl2, 7.5 mM KCl, 3 mM DTT, 0.03 mg/mL BSA, 6% glycerol) were added to the diluted compound on the assay plate. Final concentration of components in 384-well assay: 0.36 nM template, 15 nM primer, 0.29 μM ^3H-UTP (0.3 μCi), 1.6 U/4 RNAse inhibitor, 7 nM NS5B enzyme, 0.01 mg/mL BSA, 1 mM DTT, and 0.33 μg/μL beads, 20 mM Hepes buffer, pH 7.5, 2.5 mM MgCl2, 2.5 mM KCl, and 0.1% DMSO.
Reactions were allowed to proceed for 24 hours at 30° C. and terminated by the addition of 50 mM EDTA (5 μL). After incubating for at least 15 minutes, plates were read on an Amersham LEADseeker multimodality imaging system.
IC50 values for compounds were determined using ten different [I]. IC50 values were calculated from the inhibition using the four-parameter logistic formula y=A+((B−A)/(1+((C/x)^D))), where A and B denote minimal and maximal % inhibition, respectively, C is the IC50, D is hill slope and x represents compound concentration.

[2] = system: genotype 1b (Con-1) HCV replicon in Huh-7 cells; test: HCV replicon luciferase assay (1b replicon); type: cell-based; details: Hepatitis C virus
Experimental: The cell lines used to evaluate compounds consist of a human hepatocyte derived cell line (Huh-7) that constitutively expresses a genotype 1b (Con-1) HCV replicon or a genotype 1b (Con-1) HCV replicon with an asparagine replacing the cysteine at amino acid 316, or a genotype 2a (JFH-1) replicon, containing a Renilla luciferase reporter gene. These cells were maintained in Dulbecco's modified Eagle medium (DMEM) containing 10% FBS, 100 U/mL penicillin/streptomycin and 1.0 mg/mL G418.
HCV Replicon Luciferase Assay.
After 3 days incubation at 37° C., cells were analyzed for Renilla Luciferase activity using the EnduRen substrate (Promega cat #E6485) according to the manufacturer's directions. Briefly, the EnduRen substrate was diluted in DMEM and then added to the plates to a final concentration of 7.5 μM. The plates were incubated for at least 1 h at 37° C. then read on a Viewlux Imager (PerkinElmer) using a luminescence program.

[3] = 72 h, genotype 1b replicon, Huh-7, Renilla luciferase, 3 days incubation, read-out: EC50

Sequence of HCV NS5B genotype 1b (Con1) (Q9WMX2 2420-2992): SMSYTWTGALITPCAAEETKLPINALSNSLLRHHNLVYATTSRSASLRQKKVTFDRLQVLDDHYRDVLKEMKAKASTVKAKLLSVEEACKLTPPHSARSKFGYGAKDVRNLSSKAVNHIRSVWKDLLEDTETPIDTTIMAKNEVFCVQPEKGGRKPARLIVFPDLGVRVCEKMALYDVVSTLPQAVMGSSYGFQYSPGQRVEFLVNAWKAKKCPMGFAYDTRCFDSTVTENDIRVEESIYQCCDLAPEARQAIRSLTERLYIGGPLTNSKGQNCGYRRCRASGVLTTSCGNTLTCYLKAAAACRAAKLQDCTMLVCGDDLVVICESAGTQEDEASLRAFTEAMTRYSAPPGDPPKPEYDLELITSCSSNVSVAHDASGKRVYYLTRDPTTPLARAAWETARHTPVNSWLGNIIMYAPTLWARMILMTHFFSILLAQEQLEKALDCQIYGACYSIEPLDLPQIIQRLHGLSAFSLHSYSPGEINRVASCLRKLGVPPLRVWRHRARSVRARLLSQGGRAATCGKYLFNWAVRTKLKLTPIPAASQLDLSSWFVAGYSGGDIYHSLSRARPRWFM

| Structure (SMILES) | IC50 [1] [nM] | EC50 [2, 3] [nM] | EC50 ([2]; Huh-7, 72 h) [nM] |
| --- | --- | --- | --- |
| CNC(=O)c1c(-c2ccc(F)cc2)oc2cc(OCC(F)(F)F)c(-c3cccc(C(=O)NC4(c5ncccn5)CC4)c3)cc12 [Example 1, 2-(4-Fluorophenyl)-N-methyl-5-(3-((1-(pyrimidin-2-yl)cyclopropyl)carbamoyl)phenyl)-6-(2,2,2-trifluoroethoxy)benzofuran-3-carboxamide] | 7.42 | 10 | – |
| CNC(=O)c1c(-c2ccc(F)cc2)oc2cc(OCC(F)(F)F)c(-c3ccc(OC)c(C(=O)NC4(c5ncccn5)CC4)c3)cc12 [Example 2, 2-(4-Fluorophenyl)-5-(4-methoxy-3-((1-(pyrimidin-2-yl)cyclopropyl)carbamoyl)phenyl)-N-methyl-6-(2,2,2-trifluoroethoxy)benzofuran-3-carboxamide] | 4.15 | 6.24 | – |
| CNC(=O)c1c(-c2ccc(F)cc2)oc2cc(OCC(F)(F)F)c(-c3ccc(F)c(C(=O)NC4(c5ncccn5)CC4)c3)cc12 [Example 3, 5-(4-Fluoro-3-((1-(pyrimidin-2-yl)cyclopropyl)carbamoyl)phenyl)-2-(4-fluorophenyl)-N-methyl-6-(2,2,2-trifluoroethoxy)benzofuran-3-carboxamide] | 4.38 | 6.7 | – |
| CNC(=O)c1c(-c2ccc(F)cc2)oc2cc(OCC(F)(F)F)c(-c3ccc(F)c(C(=O)NC45CC(C4)C5)c3)cc12 [Example 4, 5-(3-(Bicyclo[1.1.1]pentan-1-ylcarbamoyl)-4-fluorophenyl)-2-(4-fluorophenyl)-N-methyl-6-(2,2,2-trifluoroethoxy)benzofuran-3-carboxamide] | 3.88 | 8.61 | – |
| CCOc1cc2oc(-c3ccc(F)cc3)c(C(=O)NC)c2cc1-c1cccc(C(=O)NC23CC(C2)C3)c1 [Example 5, 5-(3-(Bicyclo[1.1.1]pentan-1-ylcarbamoyl)phenyl)-6-ethoxy-2-(4-fluorophenyl)-N-methylbenzofuran-3-carboxamide] | 4.3 | 6.5 | – |
| CCOc1cc2oc(-c3ccc(F)cc3)c(C(=O)NC)c2cc1-c1cccc(C(=O)NC2(c3ncccn3)CC2)c1 [Example 7, 6-Ethoxy-2-(4-fluorophenyl)-N-methyl-5-(3-((1-(pyrimidin-2-yl)cyclopropyl)carbamoyl)phenyl)benzofuran-3-carboxamide] | 5.78 | 10 | – |
| CNC(=O)c1c(-c2ccc(F)cc2)oc2cc(OCC(F)(F)F)c(-c3cccc(C(=O)NC4(C#N)CC4)c3)cc12 [Example 8, 5-(3-((1-Cyanocyclopropyl)carbamoyl)phenyl)-2-(4-fluorophenyl)-N-methyl-6-(2,2,2-trifluoroethoxy)benzofuran-3-carboxamide] | 4.97 | 20 | – |
| CNC(=O)c1c(-c2ccc(F)cc2)oc2cc(OCC(F)(F)F)c(-c3cccc(C(=O)NC(C)(C)C#N)c3)cc12 [Example 10, 5-(3-((2-Cyanopropan-2-yl)carbamoyl)phenyl)-2-(4-fluorophenyl)-N-methyl-6-(2,2,2-trifluoroethoxy)benzofuran-3-carboxamide] | 3.02 | 5.01 | – |
| CCOc1cc2oc(-c3ccc(F)cc3)c(C(=O)NC)c2cc1-c1ccc(OC)c(C(=O)NC23CC(C2)C3)c1 [Example 11, 5-(3-(Bicyclo[1.1.1]pentan-1-ylcarbamoyl)-4-methoxyphenyl)-6-ethoxy-2-(4-fluorophenyl)-N-methylbenzofuran-3-carboxamide] | – | 9.63 | – |
| CCOc1cc2oc(-c3ccc(F)cc3)c(C(=O)NC)c2cc1-c1ccc(OC)c(C(=O)NC2(c3ncccn3)CC2)c1 [Example 12, 6-Ethoxy-2-(4-fluorophenyl)-5-(4-methoxy-3-((1-(pyrimidin-2-yl)cyclopropyl)carbamoyl)phenyl)-N-methylbenzofuran-3-carboxamide] | 1.89 | 4.2 | – |
| CCOc1cc2oc(-c3ccc(F)cc3)c(C(=O)NC)c2cc1-c1cnc(OC)c(C(=O)NC2(c3ncccn3)CC2)c1 [Example 13, 5-(6-Ethoxy-2-(4-fluorophenyl)-3-(methylcarbamoyl)benzofuran-5-yl)-2-methoxy-N-(1-(pyrimidin-2-yl)cyclopropyl)nicotinamide] | 2.72 | 3.67 | – |
| CCOc1cc2oc(-c3ccc(F)cc3)c(C(=O)NC)c2cc1-c1cnc(OC)c(C(=O)NC23CC(C2)C3)c1 [Example 15, N-(bicyclo[1.1.1]pentan-1-yl)-5-(6-ethoxy-2-(4-fluorophenyl)-3-(methylcarbamoyl)benzofuran-5-yl)-2-methoxynicotinamide] | 2.48 | 7.03 | – |
| [2H]C([2H])([2H])Oc1ncc(-c2cc3c(C(=O)NC)c(-c4ccc(F)cc4)oc3cc2OCC)cc1C(=O)NC(C)(C)C#N [Example 17, N-(2-cyanopropan-2-yl)-5-(6-ethoxy-2-(4-fluorophenyl)-3-(methylcarbamoyl)benzofuran-5-yl)-2-(methoxy-d3)nicotinamide] | 1.84 | – | 2.8 |
| CNC(=O)c1c(-c2ccc(F)cc2)oc2cc(OCC(F)(F)F)c(-c3ccc(OC)c(C(=O)NC(C)(C)c4ncon4)c3)cc12 [Example 18, 5-(3-((2-(1,2,4-oxadiazol-3-yl)propan-2-yl)carbamoyl)-4-methoxyphenyl)-2-(4-fluorophenyl)-N-methyl-6-(2,2,2-trifluoroethoxy)benzofuran-3-carboxamide] | 2.83 | 2.85 | – |
| CNC(=O)c1c(-c2ccc(F)cc2)oc2cc(OCC(F)F)c(-c3cccc(C(=O)NC(C)(C)c4ncon4)c3)cc12 [Example 19, 5-(3-((2-(1,2,4-Oxadiazol-3-yl)propan-2-yl)carbamoyl)phenyl)-6-(2,2-difluoroethoxy)-2-(4-fluorophenyl)-N-m ethylbenzofuran-3-carboxamide] | 4.2 | 7.41 | – |
| CNC(=O)c1c(-c2ccc(F)cc2)oc2cc(OCC(F)F)c(-c3cccc(C(=O)NC4(c5ncccn5)CC4)c3)cc12 [Example 20, 6-(2,2-difluoroethoxy)-2-(4-fluorophenyl)-N-methyl-5-(3-((1-(pyrimidin-2-yl)cyclopropyl)carbamoyl)phenyl)benzofuran-3-carboxamide] | 4.54 | – | 6.79 |
| CNC(=O)c1c(-c2ccc(F)cc2)oc2cc(OCC(F)(F)F)c(-c3cnc(OC)c(C(=O)NC45CC(C4)C5)c3)cc12 [Example 30, N-(Bicyclo[1.1.1]pentan-1-yl)-5-(2-(4-fluorophenyl)-3-(methylcarbamoyl)-6-(2,2,2-trifluoroethoxy)benzofuran-5-yl)-2-methoxynicotinamide] | – | 10 | – |
| CNC(=O)c1c(-c2ccc(F)cc2)oc2cc(OCC(F)(F)F)c(-c3cnc(OC)c(C(=O)NC(C)(C)c4ncon4)c3)cc12 [Example 31, N-(2-(1,2,4-Oxadiazol-3-yl)propan-2-yl)-5-(2-(4-fluorophenyl)-3-(methylcarbamoyl)-6-(2,2,2-trifluoroethoxy)benzofuran-5-yl)-2-methoxynicotinamide] | – | 3.21 | – |
